Assay results published in ChEMBL document CHEMBL1201862, “PubChem BioAssay data set” (2004).
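Assay format: 96-well plates, 48-hour exposure. Here, GI50 denotes the concentration required for 50% inhibition of growth.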 Activity calls are given as the source filed them. No stated cut-off is given here; in the data, active = GI50 up to about 1.1 µM and inactive = higher.

Experiments:
Test in all cases: inhibition of tumour cell growth, NCI panel, 48 h
TK-10 = test system: TK-10
SW-620 = test system: SW-620
COLO 205 = test system: COLO 205
SN12C = test system: SN12C
PC-3 = test system: PC-3
HOP-92 = test system: HOP-92
K562 = test system: K562
MDA-N = test system: MDA-N
OVCAR-4 = test system: OVCAR-4
786-0 = test system: 786-0
HT-29 = test system: HT-29
HCT-116 = test system: HCT-116
UO-31 = test system: UO-31
CCRF-CEM = test system: CCRF-CEM
HOP-62 = test system: HOP-62
HCT-15 = test system: HCT-15
NCI-H522 = test system: NCI-H522
SK-OV-3 = test system: SK-OV-3
T47D = test system: T47D
NCI-H226 = test system: NCI-H226

SMILES | GI50 (TK-10) | GI50 (SW-620) | GI50 (COLO 205) | GI50 (SN12C) | GI50 (PC-3) | GI50 (HOP-92) | GI50 (K562) | GI50 (MDA-N) | GI50 (OVCAR-4) | GI50 (786-0) | GI50 (HT-29) | GI50 (HCT-116) | GI50 (UO-31) | GI50 (CCRF-CEM) | GI50 (HOP-62) | GI50 (HCT-15) | GI50 (NCI-H522) | GI50 (SK-OV-3) | GI50 (T47D) | GI50 (NCI-H226)
Cc1cc(NC(=O)NC(=O)c2ccccc2NC(=O)C(C)N)ccc1Oc1ncc(Br)cn1 (stereo not given) | 1.22 µM (inactive) | 0.185 µM (active) | 0.0719 µM (active) | 0.0885 µM (active) | 0.0391 µM (active) | 1.92 µM (inactive) | 0.136 µM (active) | 0.0202 µM (active) | 5.36 µM (inactive) | 0.0559 µM (active) | 0.116 µM (active) | 0.714 µM (active) | 0.216 µM (active) | 0.0619 µM (active) | 0.0306 µM (active) | 0.31 µM | 0.0301 µM (active) | 0.0178 µM (active) | 15.1 µM (inactive) | 0.0703 µM (active)
Cc1nc2cccc(F)c2c(=O)n1-c1nnc(C2CC2)s1 | > 10 µM (inactive) | > 10 µM (inactive) | > 10 µM (inactive) | > 10 µM (inactive) | > 10 µM (inactive) | > 10 µM (inactive) | > 10 µM (inactive) | > 10 µM (inactive) | > 10 µM (inactive) | > 10 µM (inactive) | > 10 µM (inactive) | > 10 µM (inactive) | > 10 µM (inactive) | > 10 µM (inactive) | > 10 µM (inactive) | > 10 µM | > 10 µM (inactive) | > 10 µM (inactive) | > 10 µM (inactive) | > 10 µM (inactive)
Nc1ccc2c(SCc3ccc([N+](=O)[O-])cc3)c3ccccc3nc2c1 | 11.9 µM (inactive) | 2.87 µM (inactive) | 2.28 µM (inactive) | 18.6 µM (inactive) | 16 µM (inactive) | 15.2 µM (inactive) | 3.54 µM (inactive) | 12.8 µM (inactive) | 14.1 µM (inactive) | 7.52 µM (inactive) | 17.5 µM (inactive) | 7.53 µM (inactive) | 14 µM (inactive) | 1.35 µM (inactive) | 21.8 µM (inactive) | 13.5 µM | 3.47 µM (inactive) | 20.5 µM (inactive) | 8.02 µM (inactive) | 18.7 µM (inactive)
CCN(CC)CCOC(=O)CCN1CC2CCC(CC2)C1 | > 100 µM (inactive) | > 100 µM (inactive) | > 100 µM (inactive) | – | > 100 µM (inactive) | > 100 µM (inactive) | > 100 µM (inactive) | > 100 µM (inactive) | > 100 µM (inactive) | > 100 µM (inactive) | > 100 µM (inactive) | > 100 µM (inactive) | > 100 µM (inactive) | > 100 µM (inactive) | – | > 100 µM | > 100 µM (inactive) | > 100 µM (inactive) | > 100 µM (inactive) | > 100 µM (inactive)
CCOC(=O)/C=C/[C@H](O[Si](c1ccccc1)(c1ccccc1)c1ccccc1)C(C)(C)C | > 31.6 µM (inactive) | > 31.6 µM (inactive) | > 31.6 µM (inactive) | > 31.6 µM (inactive) | 10.5 µM (inactive) | > 31.6 µM (inactive) | 7.78 µM (inactive) | > 31.6 µM (inactive) | > 31.6 µM (inactive) | > 31.6 µM (inactive) | 7.03 µM (inactive) | 22.5 µM (inactive) | > 31.6 µM (inactive) | 15.8 µM (inactive) | > 31.6 µM (inactive) | > 31.6 µM | > 31.5 µM (inactive) | > 31.6 µM (inactive) | 11.5 µM (inactive) | > 31.6 µM (inactive)
NC1=NN(c2ccccc2)C2(c3ccncc3C(=O)O)C1C(N)=NN2c1ccccc1 (stereo not given) | – | > 100 µM (inactive) | > 100 µM (inactive) | > 100 µM (inactive) | > 100 µM (inactive) | > 100 µM (inactive) | > 100 µM (inactive) | > 100 µM (inactive) | > 100 µM (inactive) | > 100 µM (inactive) | > 100 µM (inactive) | > 100 µM (inactive) | > 100 µM (inactive) | > 100 µM (inactive) | – | > 100 µM | > 100 µM (inactive) | > 100 µM (inactive) | > 100 µM (inactive) | > 100 µM (inactive)
COC(=O)C12CCC(C)(C)CC1C1=CCC3C4(C)CC(O)C(O)C(C)(C(=O)OC)C4CCC3(C)C1(CO)CC2 (stereo not given) | 19 µM (inactive) | 11.4 µM (inactive) | 15.3 µM (inactive) | 18.3 µM (inactive) | 10.3 µM (inactive) | 14.2 µM (inactive) | 15.6 µM (inactive) | 13.3 µM (inactive) | 13.5 µM (inactive) | 10.2 µM (inactive) | 13.6 µM (inactive) | 13.7 µM (inactive) | – | 14.3 µM (inactive) | 17.9 µM (inactive) | 14.5 µM | 14.9 µM (inactive) | 16.9 µM (inactive) | 10.7 µM (inactive) | 16.9 µM (inactive)
